This passage reports Kd results from publication PMC12134183, “Structural analysis of full-length human transmembrane protein 94 argues against its classification as a P-type Mg^2+ ATPase” (Cell Discovery, 2025).

The target of this assay is T1, TMEM94 (Homo sapiens, UniProt Q12767).
T1 construct: full-length, purified in detergent micelles; TMD extends to residue 1356; N-glycosylated
T1 sequence (Q12767 1-1356): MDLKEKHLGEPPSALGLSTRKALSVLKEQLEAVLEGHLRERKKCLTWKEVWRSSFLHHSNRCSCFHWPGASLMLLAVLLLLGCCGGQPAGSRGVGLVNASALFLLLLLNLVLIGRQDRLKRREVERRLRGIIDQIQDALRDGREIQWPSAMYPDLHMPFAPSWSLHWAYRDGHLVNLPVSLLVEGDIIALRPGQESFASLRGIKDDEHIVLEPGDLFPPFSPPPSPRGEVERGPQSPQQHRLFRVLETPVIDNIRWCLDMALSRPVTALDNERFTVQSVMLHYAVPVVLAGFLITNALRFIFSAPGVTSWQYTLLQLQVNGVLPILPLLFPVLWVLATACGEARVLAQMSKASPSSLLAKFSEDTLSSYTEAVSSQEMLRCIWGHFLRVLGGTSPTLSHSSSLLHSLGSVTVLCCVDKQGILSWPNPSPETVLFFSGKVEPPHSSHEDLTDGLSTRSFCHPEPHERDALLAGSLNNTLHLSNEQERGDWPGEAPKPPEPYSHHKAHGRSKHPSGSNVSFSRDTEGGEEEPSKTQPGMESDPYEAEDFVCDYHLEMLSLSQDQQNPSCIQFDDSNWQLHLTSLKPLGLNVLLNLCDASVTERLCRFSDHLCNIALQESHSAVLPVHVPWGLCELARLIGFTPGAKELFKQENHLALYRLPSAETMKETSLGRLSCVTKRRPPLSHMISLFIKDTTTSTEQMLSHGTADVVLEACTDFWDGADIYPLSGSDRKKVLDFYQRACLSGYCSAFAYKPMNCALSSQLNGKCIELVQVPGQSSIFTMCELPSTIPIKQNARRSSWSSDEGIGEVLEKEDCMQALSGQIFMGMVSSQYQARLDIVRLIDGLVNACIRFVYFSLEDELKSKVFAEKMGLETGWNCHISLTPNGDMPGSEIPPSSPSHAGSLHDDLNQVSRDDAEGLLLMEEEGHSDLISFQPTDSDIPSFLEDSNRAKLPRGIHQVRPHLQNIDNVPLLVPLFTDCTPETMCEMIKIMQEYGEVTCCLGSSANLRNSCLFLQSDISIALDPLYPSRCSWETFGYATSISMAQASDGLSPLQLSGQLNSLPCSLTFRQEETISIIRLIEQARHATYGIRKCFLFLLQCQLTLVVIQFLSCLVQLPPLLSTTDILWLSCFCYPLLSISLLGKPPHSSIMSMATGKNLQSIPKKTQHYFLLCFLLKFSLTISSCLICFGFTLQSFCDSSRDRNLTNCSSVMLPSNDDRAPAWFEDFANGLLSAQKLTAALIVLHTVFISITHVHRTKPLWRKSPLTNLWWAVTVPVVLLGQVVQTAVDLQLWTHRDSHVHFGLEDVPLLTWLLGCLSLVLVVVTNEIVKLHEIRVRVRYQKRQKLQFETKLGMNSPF
The assay can be described thus: microscale thermophoresis (MST). In kind it is binding. Background: In MST a laser heats a spot of the sample, and binding alters the fluorescence response.

By Kd is commonly meant the free concentration of one partner at which half of the binding sites on the other are occupied at equilibrium, for simple one-to-one binding.

As to `Nc1ncnc2c1ncn2[C@@H]1O[C@H](COP(=O)(O)OP(=O)(O)CP(=O)(O)O)[C@@H](O)[C@H]1O` [AMPPCP], binding was characterised by a dissociation constant (Kd) of 5.48 ± 1.41 µM.
